Several values for one entry are separate records, joined by “and”; a condition that tells them apart may be missing. Equal entries are not always repeated.
Legend:
[1] = target: T1, Endonuclease 8-like 2 (Homo sapiens) (UniProt Q969S2); conditions: Compound Concentration 10.0 uM, Hit No;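 further: fluorescence at 594 nm reports NEIL2 cutting and release of a quenched double-stranded DNA oligo substrate, reduced signal read as inhibition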
T1 sequence (whole entry): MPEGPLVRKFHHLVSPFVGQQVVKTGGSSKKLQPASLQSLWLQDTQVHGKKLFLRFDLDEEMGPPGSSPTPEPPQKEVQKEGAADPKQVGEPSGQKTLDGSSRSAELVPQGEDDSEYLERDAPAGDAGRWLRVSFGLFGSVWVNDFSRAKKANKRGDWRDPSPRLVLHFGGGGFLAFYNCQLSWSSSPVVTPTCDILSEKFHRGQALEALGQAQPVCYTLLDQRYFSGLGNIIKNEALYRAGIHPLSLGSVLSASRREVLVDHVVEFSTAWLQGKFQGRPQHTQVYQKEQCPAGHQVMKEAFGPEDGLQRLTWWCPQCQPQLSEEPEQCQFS
Description: Inhibition of NEIL2 by quantifying inhibition of NEIL2-mediated cleavage and dissociation of quenched duplex DNA oligonucleotides, measured as fluorescence at 594 nm.

[2] = target: Uracil-DNA glycosylase (Homo sapiens) (UniProt P13051); conditions: Compound Concentration 10.0 uM, Hit No;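 further: UNG excision on a quenched double-stranded DNA oligo probe, with APE1 added for strand incision and turnover, read as fluorescence at 594 nm as strands separate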
Sequence of Uracil-DNA glycosylase (Homo sapiens) (P13051 whole entry): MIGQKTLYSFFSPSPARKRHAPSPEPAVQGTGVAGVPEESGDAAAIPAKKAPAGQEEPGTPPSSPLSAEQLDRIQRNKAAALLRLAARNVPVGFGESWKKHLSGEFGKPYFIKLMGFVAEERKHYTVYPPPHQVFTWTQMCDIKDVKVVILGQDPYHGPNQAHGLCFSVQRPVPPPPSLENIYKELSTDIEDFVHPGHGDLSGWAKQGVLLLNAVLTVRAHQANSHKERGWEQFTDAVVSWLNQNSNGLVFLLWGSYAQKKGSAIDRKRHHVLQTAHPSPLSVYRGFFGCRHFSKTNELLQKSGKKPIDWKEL
Description: Inhibition of UNG by quantifying inhibition of UNG-mediated cleavage and dissociation of quenched duplex DNA oligonucleotides, measured as fluorescence at 594 nm. To generate a functional strand incision and increase turn-over this assay is coupled to APE1.

[3] = target: Endonuclease 8-like 1 (Homo sapiens) (UniProt Q96FI4); conditions: Compound Concentration 10.0 uM, Hit No;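 further: fluorescence at 594 nm from quenched duplex DNA oligonucleotides released by NEIL1 cleavage and strand separation, reported as reduction of this enzyme activity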
Sequence of Endonuclease 8-like 1 (Homo sapiens) (Q96FI4 whole entry): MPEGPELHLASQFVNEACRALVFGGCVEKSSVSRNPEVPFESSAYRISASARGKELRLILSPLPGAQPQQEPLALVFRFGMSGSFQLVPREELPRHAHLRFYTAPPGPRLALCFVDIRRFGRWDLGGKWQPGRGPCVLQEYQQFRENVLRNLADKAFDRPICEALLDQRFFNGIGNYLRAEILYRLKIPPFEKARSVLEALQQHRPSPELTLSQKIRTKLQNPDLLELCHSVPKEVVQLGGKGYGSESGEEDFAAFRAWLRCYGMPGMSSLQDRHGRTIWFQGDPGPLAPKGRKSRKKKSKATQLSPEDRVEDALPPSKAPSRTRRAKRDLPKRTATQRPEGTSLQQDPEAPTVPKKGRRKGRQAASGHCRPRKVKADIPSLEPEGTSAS
Description: Inhibition of NEIL1 by quantifying inhibition of NEIL1-mediated cleavage and dissociation of quenched duplex DNA oligonucleotides, measured as fluorescence at 594 nm.

[4] = target: T2, Endonuclease III-like protein 1 (Homo sapiens) (UniProt P78549); conditions: Compound Concentration 10.0 uM;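 further: enzyme assay tracking NTHL1 cutting and release of a quenched double-stranded DNA oligo substrate, read as fluorescence at 594 nm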
T2 sequence (whole entry): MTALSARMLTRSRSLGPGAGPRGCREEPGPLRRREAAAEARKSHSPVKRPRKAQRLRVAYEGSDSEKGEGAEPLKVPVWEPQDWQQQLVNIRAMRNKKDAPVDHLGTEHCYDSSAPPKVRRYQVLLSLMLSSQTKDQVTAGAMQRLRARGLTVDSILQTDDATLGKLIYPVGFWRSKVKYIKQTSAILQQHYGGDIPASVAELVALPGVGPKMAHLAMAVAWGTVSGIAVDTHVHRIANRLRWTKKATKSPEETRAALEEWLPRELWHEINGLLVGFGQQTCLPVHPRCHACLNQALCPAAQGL
Description: Inhibition of NTHL1 by quantifying inhibition of NTHL1-mediated cleavage and dissociation of quenched duplex DNA oligonucleotides, measured as fluorescence at 594 nm.

[5] = target: G/T mismatch-specific thymine DNA glycosylase (Homo sapiens) (UniProt Q13569); conditions: Compound Concentration 10.0 uM;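 further: human TDG cleavage of quenched duplex DNA oligonucleotides coupled to APE1, strand release read as fluorescence at 594 nm, inhibition of TDG activity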
Sequence of G/T mismatch-specific thymine DNA glycosylase (Homo sapiens) (Q13569 whole entry): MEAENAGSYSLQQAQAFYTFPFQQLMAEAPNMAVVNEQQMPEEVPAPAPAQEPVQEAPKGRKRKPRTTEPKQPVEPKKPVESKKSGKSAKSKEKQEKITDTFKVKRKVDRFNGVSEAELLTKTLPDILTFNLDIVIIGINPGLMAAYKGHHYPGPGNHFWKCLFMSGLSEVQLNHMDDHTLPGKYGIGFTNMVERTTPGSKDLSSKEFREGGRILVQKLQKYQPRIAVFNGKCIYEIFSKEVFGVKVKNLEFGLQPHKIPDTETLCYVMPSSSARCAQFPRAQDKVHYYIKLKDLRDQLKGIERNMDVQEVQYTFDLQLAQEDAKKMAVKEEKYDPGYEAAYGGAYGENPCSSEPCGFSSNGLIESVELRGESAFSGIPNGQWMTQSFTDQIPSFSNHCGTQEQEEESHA
Description: Inhibition of TDG by quantifying inhibition of TDG-mediated cleavage and dissociation of quenched duplex DNA oligonucleotides, measured as fluorescence at 594 nm. To generate a functional strand incision and increase turn-over this assay is coupled to APE1.

[6] = target: N-glycosylase/DNA lyase (Homo sapiens) (UniProt O15527); conditions: Compound Concentration 10.0 uM, Hit No;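 further: OGG1 cleavage of a quenched duplex DNA oligonucleotide, coupled to APE1 for strand incision, read as fluorescence at 594 nm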
Sequence of N-glycosylase/DNA lyase (Homo sapiens) (O15527 whole entry, the tested form may be a part): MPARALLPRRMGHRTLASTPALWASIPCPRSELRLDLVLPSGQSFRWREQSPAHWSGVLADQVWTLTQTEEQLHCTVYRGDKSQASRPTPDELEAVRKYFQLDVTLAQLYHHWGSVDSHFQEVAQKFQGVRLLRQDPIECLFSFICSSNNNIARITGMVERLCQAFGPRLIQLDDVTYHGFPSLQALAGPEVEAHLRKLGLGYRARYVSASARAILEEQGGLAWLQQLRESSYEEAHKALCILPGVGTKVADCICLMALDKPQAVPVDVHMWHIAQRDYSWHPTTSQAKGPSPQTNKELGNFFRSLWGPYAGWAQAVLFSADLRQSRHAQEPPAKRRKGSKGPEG
Description: Inhibition of OGG1 by quantifying inhibition of OGG1-mediated cleavage and dissociation of quenched duplex DNA oligonucleotides, measured as fluorescence at 594 nm. To generate a functional strand incision and increase turn-over this assay is coupled to APE1.

[7] = target: Methyl-CpG-binding domain protein 4 (Homo sapiens) (UniProt O95243); conditions: Compound Concentration 10.0 uM, Hit No;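 further: MBD4 activity read as fluorescence at 594 nm from cleavage and release of a quenched duplex DNA oligonucleotide, with APE1 coupled to incise the strand and raise turnover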
Sequence of Methyl-CpG-binding domain protein 4 (Homo sapiens) (O95243 whole entry, the tested form may be a part): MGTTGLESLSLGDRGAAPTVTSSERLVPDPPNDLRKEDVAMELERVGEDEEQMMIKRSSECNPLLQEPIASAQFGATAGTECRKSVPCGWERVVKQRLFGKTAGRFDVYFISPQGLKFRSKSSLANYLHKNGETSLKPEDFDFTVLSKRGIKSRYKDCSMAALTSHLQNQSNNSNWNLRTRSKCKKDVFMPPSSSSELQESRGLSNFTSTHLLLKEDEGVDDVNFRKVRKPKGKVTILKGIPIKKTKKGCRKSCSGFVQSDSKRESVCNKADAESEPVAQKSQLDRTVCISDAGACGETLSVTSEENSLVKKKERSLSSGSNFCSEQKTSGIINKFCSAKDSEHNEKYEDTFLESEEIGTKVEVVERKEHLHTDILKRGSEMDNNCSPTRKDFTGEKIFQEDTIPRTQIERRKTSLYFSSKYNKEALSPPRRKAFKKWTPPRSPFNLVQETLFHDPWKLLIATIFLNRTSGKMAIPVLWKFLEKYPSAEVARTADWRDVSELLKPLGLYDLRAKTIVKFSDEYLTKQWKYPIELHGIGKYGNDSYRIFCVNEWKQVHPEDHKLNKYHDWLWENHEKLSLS
Description: Inhibition of MBD4 by quantifying inhibition of MBD4-mediated cleavage and dissociation of quenched duplex DNA oligonucleotides, measured as fluorescence at 594 nm. To generate a functional strand incision and increase turn-over this assay is coupled to APE1.

[8] = target: T3, Adenine DNA glycosylase (Homo sapiens) (UniProt Q9UIF7); conditions: Compound Concentration 10.0 uM, Hit No;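 further: human MUTYH activity read as 594 nm fluorescence from cleavage and release of a quenched DNA duplex, coupled with APE1 for strand incision, lower signal meaning inhibition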
T3 sequence (whole entry): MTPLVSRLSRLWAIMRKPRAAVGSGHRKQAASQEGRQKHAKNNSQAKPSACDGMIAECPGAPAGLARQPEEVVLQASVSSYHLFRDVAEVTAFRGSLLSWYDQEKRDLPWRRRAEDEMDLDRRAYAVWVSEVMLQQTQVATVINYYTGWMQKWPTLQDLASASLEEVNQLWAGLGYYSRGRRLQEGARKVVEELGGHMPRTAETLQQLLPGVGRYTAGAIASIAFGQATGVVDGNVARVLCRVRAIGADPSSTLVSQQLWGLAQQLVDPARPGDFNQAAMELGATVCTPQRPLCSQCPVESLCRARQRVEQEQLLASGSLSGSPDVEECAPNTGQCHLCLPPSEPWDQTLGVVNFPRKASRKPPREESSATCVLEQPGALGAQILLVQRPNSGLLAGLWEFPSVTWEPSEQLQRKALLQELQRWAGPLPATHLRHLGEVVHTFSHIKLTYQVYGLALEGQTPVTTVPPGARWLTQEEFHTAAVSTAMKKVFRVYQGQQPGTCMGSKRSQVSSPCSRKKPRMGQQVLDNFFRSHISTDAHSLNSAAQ
Description: Inhibition of MUTYH by quantifying inhibition of MUTYH-mediated cleavage and dissociation of quenched duplex DNA oligonucleotides, measured as fluorescence at 594 nm. To generate a functional strand incision and increase turn-over this assay is coupled to APE1.

[9] = target: DNA-3-methyladenine glycosylase (Homo sapiens) (UniProt P29372); conditions: Compound Concentration 10.0 uM, Hit No;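 further: enzyme assay where MPG cuts a quenched duplex DNA oligonucleotide probe, paired with APE1 for strand incision and turnover, read as fluorescence at 594 nm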
Sequence of DNA-3-methyladenine glycosylase (Homo sapiens) (P29372 whole entry): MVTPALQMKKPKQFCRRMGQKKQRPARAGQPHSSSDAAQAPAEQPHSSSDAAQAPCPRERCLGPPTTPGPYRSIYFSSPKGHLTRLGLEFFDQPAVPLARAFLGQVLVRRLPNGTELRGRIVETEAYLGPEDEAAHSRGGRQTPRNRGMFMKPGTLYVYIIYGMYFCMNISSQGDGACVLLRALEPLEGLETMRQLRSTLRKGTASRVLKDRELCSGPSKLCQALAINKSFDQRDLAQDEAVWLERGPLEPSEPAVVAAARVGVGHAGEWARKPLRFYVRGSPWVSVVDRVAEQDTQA
Description: Inhibition of MPG by quantifying inhibition of MPG-mediated cleavage and dissociation of quenched duplex DNA oligonucleotides, measured as fluorescence at 594 nm. To generate a functional strand incision and increase turn-over this assay is coupled to APE1.

[10] = target: T4, Single-strand selective monofunctional uracil DNA glycosylase (Homo sapiens) (UniProt Q53HV7); conditions: Compound Concentration 10.0 uM, Hit No;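 further: enzymatic SMUG1 assay coupled with APE1, reading fluorescence at 594 nm released when a quenched double-stranded DNA oligonucleotide substrate is cleaved and separated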
T4 sequence (whole entry): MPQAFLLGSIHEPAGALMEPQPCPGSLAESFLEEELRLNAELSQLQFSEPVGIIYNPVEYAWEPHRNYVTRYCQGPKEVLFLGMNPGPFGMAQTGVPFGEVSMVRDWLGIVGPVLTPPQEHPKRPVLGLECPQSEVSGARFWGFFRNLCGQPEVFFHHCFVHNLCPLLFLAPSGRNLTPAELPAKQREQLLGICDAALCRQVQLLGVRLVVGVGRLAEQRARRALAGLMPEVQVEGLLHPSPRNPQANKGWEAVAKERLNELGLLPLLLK
Description: Inhibition of SMUG1 by quantifying inhibition of SMUG1-mediated cleavage and dissociation of quenched duplex DNA oligonucleotides, measured as fluorescence at 594 nm. To generate a functional strand incision and increase turn-over this assay is coupled to APE1.

Row | Structure (SMILES) | inhibition [1] | inhibition [2] | inhibition [3] | inhibition ([4]; Hit No) | inhibition ([5]; Hit No) | inhibition [6] | inhibition [7] | inhibition [8] | inhibition [9] | inhibition [10] | inhibition ([4]; Hit Yes) | inhibition ([5]; Hit Yes)
1 | FC(F)(F)c1ccc(Nc2ncnc3cc(-c4ncccc4C(F)(F)F)ccc23)cc1 | 2.71% | 1.01% | 11.7% | -4.39% | 25% | 5.12% | 18.4% | 26.4% | 12.8% | 19.7% | – | –
2 | N[C@@H](CCP(=O)(O)O)C(=O)O | -3.15% | -0.352% | 7.42% | 12.1% | 17.7% | -5.28% | 13% | -5.97% | -0.846% | -0.24% | – | –
3 | CC(=O)[C@H]1CC[C@H]2[C@@H]3CC[C@H]4C[C@H](O)CC[C@]4(C)[C@H]3CC[C@]12C | 5.51% | -1.14% | 9.05% | – | 19.2% | 7.89% | 25.8% | 1.4% | 31.5% | 13.9% | 46% | –
4 | CCOc1c2c(c(OCC)c3ncccc13)CN(c1ccc(CS(=O)(=O)NC(=O)Cc3ccccc3OC)cc1C)C2=O | 2.01% | -8.19% | 2.17% | 7.05% | 20.4% | 3.01% | 14.3% | 26.6% | -2.33% | -1.24% | – | –
5 | FC(F)(F)Oc1ccc(-c2ccc3nnc(C(F)(F)F)n3c2)cc1 | -5.19% | -4.54% | 0.158% | 27.8% | -4.99% | -7.36% | 3.41% | -0.755% | 7.52% | -3.97% | – | –
6 | CC(C)C[C@@H](C(=O)N[C@@H](Cc1ccc(OCc2ccccc2)cc1)C(=O)NC(C)(C)C)N(C)Cc1ccc(C(C)(C)C)cc1 | -9.01% | -6.44% | 2.38% | 23.7% | 11.4% | 14.7% | 16.1% | 5.01% | 6.32% | -4.08% | – | –
7 | CCCCC[C@H](O)/C=C/[C@H]1CCC(=O)[C@@H]1CCCCCCC(=O)O | 4.01% | -4.12% | 1.28% | 1.19% | 11.4% | 3.78% | 17.3% | 15.9% | 6.97% | -3.08% | – | –
8 | CCCN(CCC)CCc1cccc2c1CC(=O)N2 | 1.01% | -9.36% | 7.51% | -4.67% | 8.55% | -5.66% | 2.3% | 10.1% | -1.21% | -5.12% | – | –
9 | COc1c(C(=O)/C=C/c2ccccc2)c(O)c(OC)c2occc12 | -3.15% | -2.63% | -0.435% | 20.4% | 11% | 0.34% | 19.3% | 19.8% | 7.88% | 3.49% | – | –
10 | NS(=O)(=O)c1c(Cl)ccc(NC(=O)Nc2cccc(Cl)c2Cl)c1O | 3.51% | -6.48% | -2.13% | 29% | 16.5% | 6.41% | 14.2% | 10.9% | 14.5% | 8.49% | – | –
11 | COc1cccc2c1c(NS(=O)(=O)c1ccc(Cl)s1)nn2Cc1cccc(CNC(=O)C(C)(C)O)c1 | 1.18% | -8.69% | -1.47% | 8% | 0.908% | -5.21% | 19.3% | 7.32% | -4.44% | -4.59% | – | –
12 | CCOC(=O)c1c(C)[nH]c2ccc3c(c12)CN1CCc2cc(OC)ccc2C1O3 (stereo not given) | 3.01% | -1.04% | -0.0556% | -1.01% | 29.8% | 32.3% | 29.1% | 18.2% | 18.6% | 8.69% | – | –
13 | Cc1cc(Cn2cnc3c2C[C@@H](C(=O)O)N(C(=O)C(c2ccccc2)c2ccccc2)C3)ccc1N(C)C | -0.733% | -2.82% | 10.3% | -6.87% | 25.8% | 5.17% | 46% | 20.9% | 19.4% | 7.18% | – | –
14 | CCCOc1ccc2[nH]cc(C3=CCNCC3)c2n1 | -8.25% | -5.52% | 0.306% | 7.17% | 11.1% | -9.55% | -0.485% | 0.205% | -2.25% | -1.82% | – | –
15 | C[C@H](N)COC(=O)[C@@H](CCCCN)NC(=O)Cc1c(-c2ccc3ccccc3c2)[nH]c2c1ccc1ccccc12 | 14.7% and 12.7% | 4.7% and 1.53% | 2.76% and 13.3% | 5.59% | – | -2.94% and 9.96% | 95.3% and 102% | 122% and 125% | 58.5% and 61.8% | 4.71% | – | 88.5% and 91%
16 | Cn1ncnc1COc1nn2c(-c3cc(F)ccc3F)nnc2cc1C(C)(C)C | -8.5% | -5.8% | 1.64% | -7.69% | 6.81% | -6.92% | 6.48% | -2.13% | -8.96% | -5.72% | – | –
17 | COC[C@H](O)Cn1c(=O)cnn(-c2ccc(Cl)c(C(=O)NCC3(O)CCCCCC3)c2)c1=O | -2.64% | -3.13% | 1.64% | -8.51% | 9.08% | -7.67% | 2.28% | 7.26% | 19.8% | -5.5% | – | –
18 | N=C(N)NCCSC(=N)N | -9.52% | -5.32% | -7.55% | -1.08% | 8.29% | -4.9% | 16.4% | -5.42% | -0.668% | -6.96% | – | –
19 | CCCCCCCCc1ccc(CC[C@](N)(CO)COP(=O)(O)O)cc1 | 6.75% | -7.46% | 9.14% | -3.94% | 7.26% | 0.481% | -2.75% | 6.04% | 7.62% | 0.742% | – | –
20 | Nc1ncnc2c1ncn2[C@@H]1O[C@H](COP(=O)(O)OP(=O)(O)O)[C@@H](O)[C@H]1O | 1.69% | -1.19% | 8.75% | 11.3% | 26.4% | -9.66% | 10.8% | 18.3% | -6.47% | -0.127% | – | –
